# Experiments:
# [1] = target: T1, K-Ras-GTP (Homo sapiens, UniProt P01116, G12S); assay: K-Ras-GTP GST-RBD pull-down assay and immunoblotting in A549 cells; type: cell-based
# T1 construct: endogenous in cells; host or cells: A549 (ATCC)
# Description: (§1) A549 cells were incubated for 24 or 48 h with or without FTS, as described above, and then lysed with lysis buffer as described in Haklai, R., Gana-Weisz, M., Elad, G., et al., Biochemistry 37:1306-14 (1998). The apparent amounts of K-Ras-GTP in 0.5 mg protein of total cell lysates were determined by the glutathione-S-transferase (GST)-RBD (Ras-binding domain of Raf) pull-down assay, as described in (Elad-Sfadia, G., Haklai, R., Ballan, E., Gabius, H. J., Kloog, Y., J Biol Chem 277:37169-75 (2002). The apparent amounts of Rac1-GTP and of RhoA-GTP, each in 2 mg protein of total cell lysates, were determined, respectively, by pull-down assays with GST-PBD (Rac1-binding domain of PAK1)-conjugated and GST-Rhotekin BD (Rho-binding domain of Rhotekin)-conjugated beads [Benard, V., Bohl, B. P., Bokoch, G. M, J Biol Chem 274:13198-204 (1999); Fiordalisi, J. J., Keller, P. J., Cox, A. D., Cancer Res 66:3153-61 (2006). The pulled-down GTPases were subjected to SDS-PAGE followed by immunoblotting with the appropriate antibodies: anti K-Ras (1:30; Calbiochem, La Jolla, Calif.), anti Rac-1 (1:2500; Santa Cruz Biotechnology, Santa Cruz, Calif.), or anti RhoA (1:700; Upstate Biotechnology, Lake Placid, N.Y.). Immunoblots were exposed to 1:2500 peroxidase-goat anti-mouse IgG. Levels of phospho-ERK and phospho-Akt were determined by immunoblotting [Haklai, R., Gana-Weisz, M., Elad, G., et al., supra.] using rabbit anti phospho-ERK1/2 Ab (Santa Cruz Biotechnology, Santa Cruz, Calif.) and rabbit anti phospho-Akt Ab (Cell Signaling, Beverly, Mass.). Protein bands were visualized by enhanced chemiluminescence and quantified by densitometry using ImageJ computer software (National institutes of Health, Bethesda, Md.).
# To determine whether active K-Ras-GTP and its prominent downstream signals to ERK and Akt were inhibited in A549 cells, and if so, whether the […] growth of the cells was also affected, two experiments were performed. First, A549 cells were incubated in the absence and in the presence of various concentrations of FTS and K-Ras-GTP, phospho-ERK and phospho-Akt levels were measured.
# [2] = system: A549 cells; assay: Drug combination experiments, live cell counting; type: cell-based, human; settings: FTS alone 40 μM
# Description: In drug combination experiments, cells were grown for 2 days in the absence or in the presence of 40 μM FTS and were then treated for 4 h with gemcitabine (100 or 200 nM), cisplatin (50 or 100 nM), doxorubicin (50 or 100 nM), or paclitaxel (2.5 or 5 nM). Live cells were counted after a further 3 days of incubation with or without FTS. Experiments were performed twice in quadruplicate. To determine whether A549 cells were resistant to apoptosis, an experiment to examine the survival of human lung cancer A549 cells after exposure to a chemotherapeutic agent in the presence of FTS was performed. Thus, to determine whether treatment with FTS can increase the sensitivity of A549 cells to cytotoxic drugs, A549 cells were incubated for 48 h with DMSO (control) or with 40 μM FTS, then for 4 h with gemcitabine, cisplatin, doxorubicin, or paclitaxel at the indicated concentrations. The cells were then washed and incubated for a further 72 h with DMSO or with 40 μM FTS. Live cells were collected and counted. The numbers of cells in the drug-treated cultures, expressed as percentages of the numbers in the vehicle-treated control, are shown in FIGS. 13A-13D. Values are means±SD. *P<0.05, **P<0.01, compared to vehicle-treated control.
# [3] = system: RhoA-GTP; assay: RhoA-GTP pull-down assay in A549 cells; type: cell-based, human
# Description: as §1, with “The pulled-down GTPases were subjected to SDS-PAGE followed by immunoblotting with the appropriate antibodies: anti K-Ras (1:30; Calbiochem, La Jolla, Calif.), anti Rac-1 (1:2500; Santa Cruz Biotechnology, Santa Cruz, Calif.), or anti RhoA (1:700; Upstate Biotechnology, Lake Placid, N.Y.). Immunoblots were exposed to 1:2500 peroxidase-goat anti-mouse IgG.” left out, “Md.). […]” for “Md.).”
# [4] = system: A549 cells; assay: Anchorage-independent colony formation assay in soft agar; type: cell-based; settings: Homo sapiens, A549, 456 h, 19 days, read-out: inhibition of A549 cell growth in soft agar
# Description: Noble agar (2% and 0.6%; Difco, Detroit, Mich.) was prepared in water and autoclaved. The 2% agar was melted in a microwave oven, mixed 1:1 with medium (×2 Kaighn's modification of Ham's F-12 medium with 20% FCS, 100 U/ml penicillin, and 0.1 mg/ml streptomycin) and poured onto 96-well plates (50 μl per well) to provide the 1% base agar. The 0.6% agar (5 ml) was mixed with 5 ml of medium (×2), containing 8×10^4 A549 cells, and the mixture (50 μl) was plated on top of the base agar. The cells were incubated for 19 days at 37° C. with or without the indicated concentrations of FTS (6 wells for the control and for each treatment) and colonies were stained with MTT (1 mg/ml for 4 h). The colonies were then visualized by light microscopy, imaged, and counted using the ImagePro software. Next, to determine the effect of FTS on the anchorage-independent growth of A549 cells, a soft agar assay was performed. The cells were seeded in soft agar and treated with increasing concentrations of FTS 0 μM, 50 μM and 100 μM (FIGS. 12A-12B). Control cells were treated with 0.1% Me2SO4 (DMSO). FTS inhibited A549 cell growth in soft agar by 27±5.5% and 58±21% at 50 μM and 100 μM FTS, respectively. Thus, FTS inhibited the anchorage-independent growth of A549 cells.
# T1 sequence (P01116 whole entry G12S): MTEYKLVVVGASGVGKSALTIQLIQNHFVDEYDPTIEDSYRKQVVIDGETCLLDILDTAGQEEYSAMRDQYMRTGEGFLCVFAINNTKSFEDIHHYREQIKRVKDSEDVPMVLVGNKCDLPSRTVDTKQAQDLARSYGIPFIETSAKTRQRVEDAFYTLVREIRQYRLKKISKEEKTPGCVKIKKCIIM
structure (smiles),measurement,setting,value
"CC(C)=CCC/C(C)=C/CC/C(C)=C/CSc1ccccc1C(=O)O [FTS, S-farnesylthiosalicylic acid]",reduction in K-Ras-GTP (mean±SD),[1]; 25 μM FTS,23±15.3%
same,reduction in K-Ras-GTP (mean±SD),[1]; 50 μM FTS,37±3.7%
same,reduction in K-Ras-GTP (mean±SD),[1]; 75 μM FTS,46±1.9%
same,effective concentration range for the reduction in K-Ras-GTP,[1]; A549 cells,50 to 75 µM
same,effect on the total amount of Ras,"[1]; A549 cells, various FTS concentrations",no significant effect
same,reduction in cell numbers (mean±SD),[2]; cisplatin experiment (FIG. 13C),33±9.5%
same,reduction in cell numbers (mean±SD),[2]; gemcitabine experiment (FIG. 13A),25±6.3%
same,increase in RhoA-GTP,[3],2±0.2 fold
same,inhibition at 50 µM,[4]; 50 μM FTS,27 ± 5.5%
same,inhibition at 100 µM,[4]; 100 μM FTS,58 ± 21%
